{
  "source": "patent US20160228444A1",
  "about": "“NUCLEOSIDE ANALOGS AND USES THEREOF” (Ramot at Tel-Aviv University Ltd., priority 2015, published 2016)",
  "key": {"VEGF": {"system": "VEGF", "test": "VEGF immunohistochemistry in tumor and heart of xenograft mice", "assay_type": "in vivo", "conditions": "FIG. 4F", "description": "The pro-angiogenic factors basic fibroblast growth factor (bFGF) and vascular endothelial growth factor (VEGF) are potent angiogenic stimulators. The expression of bFGF in the tumor and in the heart was evaluated by Western blot and qRT-PCR analyses and expression of VEGF by IHC."}, "HUT-78 CTCL cells": {"system": "HUT-78 CTCL cells", "test": "Median-effect drug interaction, MTT viability, 72 h", "assay_type": "cell-based, human", "conditions": "Homo sapiens", "description": "Cell viability was determined by an MTT cell viability assay after 48 hours. MyLa cells (10^4 cells/well), Hut78 cells (5×10^3 cells/well) and normal PBLs (10^5 cells/well) were seeded in 96 well-plates. The PBLs were activated with 40 μg/10^6 cells of phytohemagglutinine (PHA) for 24 h before the experiment.\n(§1) The ratios of the drug combination were based on the ratio of their IC50 of each drug alone. Cell viability was determined by MTT assay, as described hereinabove. The drugs were added to the cells and incubated for 72 h."}, "primary rat astrocytes": {"system": "primary rat astrocytes", "assay_type": "cell-based", "conditions": "noncancerous cells; combination compared to Dox alone; FIG. 1C", "description": "(§2) Cell viability by flow cytometry analysis (FACS) analysis was determined using the Mebcyto apoptosis kit (MBL-Japan). The cell lines 4T1, U251 (2×10^5 cells/well), astrocytes and the cardiomyoblastic cell line H9C2 (5×10^5 cells/well) were seeded in six-well plates. Following treatment they were trypsinized, washed with PBS, resuspended in […] of binding buffer and double-stained with annexin V-FITC and propidium iodide (PI) according to the manufacturer's instructions. The stained cells were subjected to FACS analyses (Calibur cytometer, Becton Dickinson) where 30,000 cells were allowed to flow for each determination point and the percentage of cells in each state (viability or death) was defined by their distribution in fluorescence dot-plots using WinMdi 2.8 software (Scripps Research Institute, La-Jolla, USA).\n(§3) The apoptotic effect of AN446, Dox and their combination was evaluated in U251 and 4T1 cancer cells, and in the non-cancerous rat cardiomyoblast cell line (H9C2) and in primary rat astrocytes, using procedures previously described for AN7 [Tarasenko et al., Invest New Drugs 2012, 30:130-143]."}, "HO-1": {"system": "HO-1", "test": "HO-1 protein and mRNA in tumor and heart of xenograft mice (Western blot, qRT-PCR)", "assay_type": "in vivo", "conditions": "heart", "description": "Tumors and hearts of the mice were rapidly removed, frozen on dry ice and kept at −70° C. Tissue was then homogenized and RNA and proteins extracted using the NucleoSpin® RNA/Protein kit according to the manufacturer's protocol (Macherey-Nagel, GmbH & Co KG).\nTotal RNA ([…]) was primed by oligo dT and reverse-transcribed by Verso cDNA kit according to the manufacturer's protocol (Thermo Scientific). Analyses of qPCR were performed with Kapa Sybr® Fast (Kapa Biosystems) on a Step One Plus thermocycler (Applied Biosystems). The comparative threshold method was used to calculate the relative gene expression. Values were normalized against glyceraldehyde 3-phosphate dehydrogenase (GAPDH). Expression of the GAPDH mRNA in each individual sample was used to normalize the dataset. The sequences of the primers were as follows: […]\n(§4) Protein levels in the samples were determined with the BCA protein assay kit (Pierce). The samples were subjected to Western blot analyses. The expression of proteins was visualized using their specified primary antibodies followed by the secondary IgG IRDye® 680DX antibody. Each detected band was quantified using the Odyssey Infrared Imaging System (LI-COR Biosciences) and normalized to the level of actin. The fold increase of a specific protein was determined by the ratio of the band intensity obtained from treated and untreated samples.\nThe effect of the drugs on the expression of genes associated with cell survival and death was examined by following changes in transcription and protein expression in tissue samples taken from the mice with glioblastoma xenografts. Heme oxygenase (HO-1) is known to play a protective role in the heart, whereas, in many cancers it is expressed and promotes growth and survival of neoplastic cells."}, "IL-6": {"system": "IL-6", "test": "IL-6 in supernatant of LPS-treated THP1 cells (ELISA)", "assay_type": "cell-based", "conditions": "1 μg/ml LPS, AN446 20 or 40 μM, FIG. 7B", "description": "(§5) The effect of AN446 on inflammation-associated pathways was evaluated in the monocytic THP1 cell line and in the MDA-MB-231 breast carcinoma cell line. Supernatants of treated THP1 cells were collected and IL-6, IL-10 and TNF-α concentrations were quantified by ELISA (R&D systems). TLR4 expression in THP1 cells was assessed using fluorescent anti-TLR4 antibodies and FACS analysis. In addition, gene expression for MCP-1, TNF-α and TLR4 in MDA-MB-231 was evaluated by qRT-PCT, following treatment with AN446 and/or paclitaxel."}, "c-Myc": {"system": "c-Myc", "test": "c-Myc and p-c-Myc (Thr 58) Western blot in tumor and heart of xenograft mice", "assay_type": "in vivo", "description": "as §4\nThe c-Myc protein is an important regulator of normal cell physiology and in tumor cells it plays an important role in activating oncogenic pathways [Soucek & Evan, Curr Opin Genet Dev 2010, 20:91-95]."}, "H9C2 cardiomyoblasts": {"system": "H9C2 cardiomyoblasts", "assay_type": "cell-based, rat", "description": "as §2, §3"}, "MCP-1": {"system": "MCP-1", "test": "MCP-1 gene expression in MDA-MB-231 cells (qRT-PCR)", "assay_type": "cell-based, human", "conditions": "combination with paclitaxel, FIG. 7C", "description": "as §5"}, "fibrous collagen": {"system": "fibrous collagen", "test": "Fibrosis in tumor, heart and kidney of U251 xenograft mice (Picrosirius Red / Fast Green)", "assay_type": "in vivo", "description": "AN446 was tested in vivo using a xenograft of glioblastoma (U251 cells) in mice."}, "MDA-231 cells": {"system": "MDA-231 cells", "test": "Median-effect drug interaction, Hoechst viability, 72 h", "assay_type": "cell-based, human", "conditions": "for IC50: Homo sapiens", "description": "as §1\n(§6) Drug interaction in adherent cells was evaluated as above except that the viability was determined by Hoechst assay."}, "[1]": {"system": "NCI-N87 gastric carcinoma cells", "test": "Median-effect drug interaction, Hoechst viability, 72 h", "assay_type": "cell-based, human", "conditions": "for IC50: Homo sapiens", "description": "as §1, §6"}, "T47D cells": {"system": "T47D cells", "test": "Median-effect drug interaction, Hoechst viability, 72 h", "assay_type": "cell-based, human", "conditions": "for IC50: Homo sapiens", "description": "as §1, §6"}},
  "note": "Read-outs that look alike come from different tables or passages of the source.",
  "data": [
    {"smiles": "CCCC(CCC)C(=O)Nc1nc2c(ncn2COCCOC(=O)C(CCC)CCC)c(=O)[nH]1", "note": "[AN446, N-valproyl-9-(2-valproyloxy)ethoxymethyl-guanine]", "values": [
      {"measurement": "VEGF expression in the heart", "setting": "VEGF", "result": "elevated"},
      {"measurement": "IC50", "setting": "HUT-78 CTCL cells; HuT78, HUT-78, single agent, Table 2", "result": 28, "unit": "µM"},
      {"measurement": "IC50", "setting": "HUT-78 CTCL cells; HuT78, read-out: com IC50, HUT-78, in combination with Dox", "result": 11, "unit": "µM"},
      {"measurement": "viability / mortality of astrocytes", "setting": "primary rat astrocytes", "result": "did not substantially affect the viability"},
      {"measurement": "HO-1 expression in the heart", "setting": "HO-1; co-treatment with Dox", "result": "increased the expression of this enzyme to a significantly higher level"},
      {"measurement": "HO-1 mRNA in the heart, elevation of basal expression level", "setting": "HO-1; co-treatment with Dox", "result": "3.89±0.35", "unit": "fold"},
      {"measurement": "HO-1 expression in the heart (decrease)", "setting": "HO-1; single agent, FIGS. 4D, 4E", "result": "did not significantly change"},
      {"measurement": "LPS-induced expression of IL-6", "setting": "IL-6", "result": "suppressed"},
      {"measurement": "c-Myc protein expression in the hearts", "setting": "c-Myc; heart, FIG. 5B", "result": "significantly increased its expression to a level higher than in naive or vehicle-treated mice"},
      {"measurement": "c-Myc protein expression in tumors", "setting": "c-Myc; tumor, FIG. 5A", "result": "decreased dramatically"},
      {"measurement": "cell death in H9C2 cardiomyoblasts", "setting": "H9C2 cardiomyoblasts; 24, 48 or 72 hours, each inhibitor at its U251 IC50, FIG. 10", "result": "did not induce significant cardiomyocyte cell death"},
      {"measurement": "viability / mortality of H9C2 cells", "setting": "H9C2 cardiomyoblasts; noncancerous cells, combination compared to Dox alone, FIG. 1C", "result": "did not substantially affect the viability"},
      {"measurement": "paclitaxel-induced increase in expression of MCP-1", "setting": "MCP-1", "result": "significantly attenuated"},
      {"measurement": "doxorubicin-induced fibrosis in the heart", "setting": "fibrous collagen; heart, co-administration with doxorubicin", "result": "attenuated the doxorubicin-induced fibrosis"},
      {"measurement": "doxorubicin-induced fibrosis in the kidneys", "setting": "fibrous collagen; kidneys, co-administration with doxorubicin", "result": "attenuated the doxorubicin-induced fibrosis"},
      {"measurement": "fibrosis in the tumor", "setting": "fibrous collagen; tumor, single agent, FIG. 8A", "result": "reduced fibrosis"},
      {"measurement": "IC50", "setting": "MDA-231 cells; MDA-MB-231, MDA-231, in combination with Dox, read-out: com IC50", "result": 17, "unit": "µM"},
      {"measurement": "IC50", "setting": "MDA-231 cells; MDA-MB-231, MDA-231, in combination with paclitaxel, read-out: com IC50", "result": "14 ± 0.3", "unit": "µM"},
      {"measurement": "IC50", "setting": "MDA-231 cells; MDA-MB-231, MDA-231, single agent, Table 2, read-out: IC50", "result": 38, "unit": "µM"},
      {"measurement": "IC50", "setting": "MDA-231 cells; MDA-MB-231, MDA-231, single agent, Table 3, read-out: IC50", "result": "37.8 ± 1.1", "unit": "µM"},
      {"measurement": "CI (combination index with paclitaxel)", "setting": "MDA-231 cells; MDA-231", "result": 0.8},
      {"measurement": "IC50", "setting": "[1]; NCI-N87, NCI-N87, single agent, Table 2", "result": "20 ± 3", "unit": "µM"},
      {"measurement": "IC50", "setting": "[1]; NCI-N87, NCI-N87, single agent, Table 3", "result": "20 ± 3", "unit": "µM"},
      {"measurement": "IC50", "setting": "[1]; NCI-N87, read-out: com IC50, NCI-N87, in combination with Dox", "result": 6, "unit": "µM"},
      {"measurement": "IC50", "setting": "[1]; NCI-N87, read-out: com IC50, NCI-N87, in combination with paclitaxel", "result": "9.1 ± 0.4", "unit": "µM"},
      {"measurement": "CI (combination index with paclitaxel)", "setting": "[1]; NCI-N87", "result": 0.76},
      {"measurement": "CI (combination index with paclitaxel)", "setting": "T47D cells", "result": 1.4},
      {"measurement": "IC50", "setting": "T47D cells; read-out: com IC50, T47D, in combination with Dox", "result": 5.2, "unit": "µM"},
      {"measurement": "IC50", "setting": "T47D cells; read-out: com IC50, T47D, in combination with paclitaxel", "result": "13.6 ± 0.6", "unit": "µM"},
      {"measurement": "IC50", "setting": "T47D cells; single agent, Table 2", "result": 21.7, "unit": "µM"},
      {"measurement": "IC50", "setting": "T47D cells; single agent, Table 3", "result": "23.6 ± 0.6", "unit": "µM"}
    ]}
  ]
}
